# US11998595B2, “Telomerase polypeptide vaccine for treating cancer” (Ultimovacs AS, priority 2010, dated 2024)
# Entries after “also recorded” stand apart in the source; their conditions may differ.
# System: stage IV melanoma patients
# Assay: Clinical course of vaccinated melanoma patients
# Type: in vivo, human
# Parameters: key to Clinical response: PD = Progressive disease; SD = Stable disease; PR = Partial response; CR = Complete response
# Description: A comparison of the patients studied in Example 4 was carried out. In brief, seven patients were identified as clinical responders following a cancer diagnosis and vaccination with an hTERT vaccine. These patients were identified based on a combination of prolonged survival and clinical response. The clinical response could either be stable disease (SD), partial response (PR) or complete response (CR). The vaccinated melanoma patients were diagnosed with stage IV at the time of inclusion in the clinical trial, but had no brain metastases. Lung cancer patient P5 was diagnosed with stage IV, inoperable lung cancer and colon cancer patient P1 with late stage inoperable colon cancer. Lung cancer patient P6 was a stage IV lung cancer patient with a 12-week life expectancy. Pancreas cancer patient P1 had relapsed, inoperable pancreas cancer and a life expectancy of 8-10 months. Four of the patients (designated Melanoma P7-P8, Lung cancer P5 and Colon cancer P1) had each been vaccinated with the peptide GV1001 (SEQ ID NO. 10). The fifth patient (designated Lung cancer P6) and the sixth patient (designated Pancreas cancer 1) had been vaccinated with dendritic cells transfected with mRNA encoding hTERT. The seventh patient, Melanoma patient P9, had not been vaccinated at the time of the study and instead developed a spontaneous response following development of the cancer. (An eighth and final patient was also identified as a clinical responder but samples from this patient were not available for study.)
# Six patients who were clinical non-responders following a melanoma cancer diagnosis and a GV1001 peptide (SEQ ID NO. 10) vaccination were studied. These patients were all stage IV melanoma patients and included in the same GV1001 vaccination trial as melanoma patients P7 and P8 who were long term survivors (see Example 6). […] Five of the patients also experienced progressive disease and one patient, designated Melanoma P3, experienced some stabilization of the disease but still had short survival. The proliferative T-cell responses of each patient to a series of peptides were determined in the same manner as in Example 1, at one time point. The peak response of each patient during the study period to peptide GV1001 is also shown which confirms that each patient responded immunologically to GV1001 vaccination.
# The patients were classed as either clinical responders or clinical non-responders based on their clinical response which included stable disease (SD), tumour regression (PR or CR) and unexpectedly long survival time. Both clinical responders and clinical non-responders were selected from the same or similar vaccination trials.
sequence,measurement,setting,value
EARPALLTSRLRFIPK (listed as Homo sapiens) [GV1001],Clinical Responder,patient Melanoma P1,No
same,Clinical response,patient Melanoma P1,PD
same,Survival (Months),patient Melanoma P1,10 Months
same,Vaccine-specific T cell response at time-point tested,patient Melanoma P1,Yes
same,Clinical Responder,patient Melanoma P2,No
same,Clinical response,patient Melanoma P2,PD
same,Survival (Months),patient Melanoma P2,9 Months
same,Vaccine-specific T cell response at time-point tested,patient Melanoma P2,Yes
same,Clinical Responder,patient Melanoma P3,No
same,Clinical response,patient Melanoma P3,SD
same,Survival (Months),patient Melanoma P3,10 Months
same,Vaccine-specific T cell response at time-point tested,patient Melanoma P3,Yes
same,Clinical Responder,patient Melanoma P4,No
same,Clinical response,patient Melanoma P4,PD
same,Survival (Months),patient Melanoma P4,8 Months
same,Vaccine-specific T cell response at time-point tested,patient Melanoma P4,Yes
same,Clinical Responder,patient Melanoma P5,No
same,Clinical response,patient Melanoma P5,PD
same,Survival (Months),patient Melanoma P5,12 Months
same,Vaccine-specific T cell response at time-point tested,patient Melanoma P5,Yes
same,Clinical Responder,patient Melanoma P6,No
same,Clinical response,patient Melanoma P6,PD
same,Survival (Months),patient Melanoma P6,8 Months
same,Vaccine-specific T cell response at time-point tested,patient Melanoma P6,Yes
same,Clinical Responder,patient Melanoma P7,Yes
same,Clinical response,patient Melanoma P7,"alive, PR"
same,Vaccine-specific T cell response at time-point tested,patient Melanoma P7,Yes
same,Survival (Months),"patient Melanoma P7, + signifies that the patient is still alive",65+ Months
same,Clinical Responder,patient Melanoma P8,Yes
same,Survival (Months),patient Melanoma P8,21 Months
same,Vaccine-specific T cell response at time-point tested,patient Melanoma P8,Yes
same,Clinical response,"patient Melanoma P8, TTP = time to progression","increased; also recorded: TTP, PR"
